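Grown in 96-well plates, cells were treated for 48 hours with each compound at five concentrations. Insufficient inhibition: endpoint recorded as highest concentration tested. GI50 marks 50% less growth. TGI: concentration producing complete growth inhibition.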
Key:
Experiment in all cases: NCI anticancer screen, dose series, 48 h
DU-145 prostate = system: DU-145 prostate
SK-OV-3 ovarian = system: SK-OV-3 ovarian
HCT-116 colon = system: HCT-116 colon
HOP-62 NSCLC = system: HOP-62 NSCLC
SK-MEL-2 melanoma = system: SK-MEL-2 melanoma
SR leukemia = system: SR leukemia
UACC-62 melanoma = system: UACC-62 melanoma
T-47D breast = system: T-47D breast
A498 renal = system: A498 renal
COLO 205 colon = system: COLO 205 colon
PC-3 prostate = system: PC-3 prostate
MOLT-4 leukemia = system: MOLT-4 leukemia
MDA-N = system: MDA-N
K-562 leukemia = system: K-562 leukemia
EKVX NSCLC = system: EKVX NSCLC
BT-549 breast = system: BT-549 breast

Compound	TGI (DU-145 prostate) [µM]	TGI (SK-OV-3 ovarian) [µM]	TGI (HCT-116 colon) [µM]	TGI (HOP-62 NSCLC) [µM]	TGI (SK-MEL-2 melanoma) [µM]	TGI (SR leukemia) [µM]	TGI (UACC-62 melanoma) [µM]	TGI (T-47D breast) [µM]	TGI (A498 renal) [µM]	TGI (COLO 205 colon) [µM]	TGI (PC-3 prostate) [µM]	TGI (MOLT-4 leukemia) [µM]	TGI (MDA-N) [µM]	TGI (K-562 leukemia) [µM]	TGI (EKVX NSCLC) [µM]	TGI (BT-549 breast) [µM]	GI50 (HCT-116 colon) [µM]
Cc1c(C)c(S(=O)(=O)N(CCCN)OCCCN)c(C)c2c1OC(C)(C)C2	> 100	> 100	> 100	> 100	26.7	> 100	> 100	> 100	42	32.5	43.3	42.7	33.6	> 100	31.3	> 100	–
O=C(O)c1ccccc1/C=N/NC1=NCCCCN1	–	> 100	> 100	> 100	> 100	> 100	> 100	> 100	> 100	> 100	> 100	> 100	> 100	> 100	> 100	> 100	–
Cc1ccc(/C=C/C(=O)c2cc(CN(C)C)c(O)c(CN(C)C)c2)cc1	> 100	–	39.7	37.5	–	62.7	–	> 100	95.5	22.5	36.8	57.2	42.5	43.9	> 100	35.4	–
Cc1cc(OCC(=O)N/N=C/C(Br)=C/c2ccccc2)nc(SCC(=O)N/N=C/C(Br)=C/c2ccccc2)n1	> 100	–	> 100	> 100	–	> 100	> 100	–	> 100	> 100	> 100	–	> 100	> 100	> 100	> 100	–
Cn1c2c(c3ccccc31)CC(=S)N1CCCC(CC2O)C1 (stereo unspecified)	> 100	> 100	> 100	–	> 100	–	> 100	> 100	> 100	> 100	> 100	–	> 100	> 100	–	> 100	–
Cc1ccc(/C=C/C(=N/NC(=O)N/N=C(/C=C/c2ccc(C)cc2)C(C)(C)CN2CCCCC2)C(C)(C)CN2CCCCC2)cc1	–	3.32	2.64	3.08	3.44	0.359	4.02	4.02	3.12	3.07	3.52	0.345	2.88	1.68	6.69	4.21	–
CCCCCCCN1C(=O)C(O)(c2ccc(C3(O)C(=O)N(CCCCCCC)c4ccccc43)s2)c2ccccc21 (stereo unspecified)	3.29	2.2	3.18	3.41	2.93	18.4	4.06	15	–	3.21	3.8	4.16	4.06	7.67	–	4.12	–
O=C1NC(N2CCCC(CO)C2)=N/C1=C\c1ccc(Cl)cc1 (stereo unspecified)	> 100	> 100	> 100	> 100	> 100	> 100	> 100	> 100	–	> 100	> 100	> 100	> 100	> 100	> 100	> 100	–
COc1ccc2c(c1)CCC1=CC3(CCC12C)SCCS3 (stereo unspecified)	> 10	> 10	–	> 10	–	> 10	> 10	> 10	–	> 10	> 10	> 10	6.36	> 10	–	> 10	–
O=C(O)CCCOc1cc(-c2ccccc2F)nc2cc3c(cc12)OCO3	> 100	> 100	> 100	> 100	> 100	> 100	> 100	> 100	–	27.4	> 100	71.3	4.45	–	> 100	> 100	3.99
NC(=O)NC(=O)c1cccc(NC(=O)CBr)c1	0.336	0.963	< 0.01	1.29	1.59	0.152	0.908	3.7	0.532	< 0.01	1.49	–	< 0.0226	1.49	6.8	1.43	–
N#CC(Cc1ccccc1Br)N(CCC1=CCCCC1)C(c1ccccc1)c1ccccc1 (stereo unspecified)	> 100	> 100	> 100	> 100	> 100	–	> 100	> 100	> 100	> 100	> 100	> 100	> 100	> 100	> 100	> 100	–
Cc1ccc(S(=O)(=O)N2CCCC2C(=O)O[C@H]2CC[C@H]3CC=C[C@H]32)cc1 (stereo partly specified)	–	> 100	> 31.6	> 100	–	> 69.6	> 100	> 100	89	–	> 100	33.4	> 100	78.9	> 100	> 100	–
C=CC[C@@H]1C(=O)[C@@]2(O[Si](C(C)C)(C(C)C)C(C)C)CC[C@@H]1C[C@H]2NC(=O)OCC(Cl)(Cl)Cl	> 100	> 100	> 100	> 100	> 100	> 100	> 100	> 100	> 100	> 100	> 100	> 100	> 100	> 100	–	–	–
CCOC(=O)c1cnc(-n2[nH]c3c(c2=O)CCCC3)[nH]c1=O	> 100	> 100	> 100	–	> 100	> 100	95.4	> 100	> 100	> 100	> 100	> 100	> 100	> 100	> 100	> 100	–
